According to PMC5597618, “Identification and characterization of the novel reversible and selective cathepsin X inhibitors” (Scientific Reports, 2017):

Experiments:
PC-3 cells [1] = assay: Real time cell migration assay (xCELLigence, CIM plates); assay type: cell-based, human
Description: (§1) Human prostate cancer cell line PC-3 cells (obtained from ATCC, Manassas, USA; ATCC Number: CRL-1435) were cultured in F-12 (Gibco) and Advanced DMEM (Gibco) (1:1) with 10% FBS, 1% penicillin/streptomycin and 1% L-glutamine. Rat pheochromocytoma PC-12 cells (obtained from ATCC, Manassas, USA; ATCC Number: CRL-1721) were cultured in Advanced DMEM (Gibco) with 5% FBS, 10% heat-inactivated horse serum, 1% penicillin/streptomycin and 1% L-glutamine.
Cell migration assay was performed on a Real-Time Cell Analyzer Dual Plate (RTCA DP) Instrument, xCELLigence System (ACEA Biosciences). CIM plates were coated with fibronectin (10 μg/ml, BD Biosciences) on the down and upper side of the microporous PET membrane for 30 min at room temperature and 2 hours at 37 °C, respectively. Excess fibronectin was removed and wells washed with phosphate buffer saline (PBS). Compounds (10 μM) were added to the complete media (lower chambers) or serum-free media (upper chambers). 0.1% DMSO was used as a control. 2 × 10^4 cells were plated per well. In additional experimental setting, inhibitors were added only to the upper chambers 3 hours after experiment started in order to measure their impact only on the cell migration and not the adhesion. Impedance data, reported as cell index, were measured continuously every 15 min for 72 hours and then analyzed with the RTCA Software (ACEA Biosciences, Inc.). Results are normalized to cells treated with DMSO.

[2] = target: T1, Cathepsin B (exopeptidase a.) (Homo sapiens, UniProt P07858); assay: Ki against cathepsin B exopeptidase activity (Abz-GIVRAK(Dnp)-OH); assay type: biochemical; settings: SigmaPlot at 3 different substrate concentrations; pH 5.0
T1 construct: made in house; host or cells: E. coli
Description: Recombinant or native human cathepsins were used: recombinant cathepsin X and cathepsin S were expressed in Pichia pastoris, recombinant cathepsins B and L in E. coli, [43], native cathepsin H was isolated from human liver. Assay buffers for determining activities of cathepsins X and L consisted of 100 mM sodium acetate buffer, pH 5.5, for cathepsins H, S and B (endopeptidase activity) of 100 mM phosphate buffer pH 6.8, 6.5 and 6.0, respectively and for cathepsin B (exopeptidase activity) of 60 mM acetate buffer pH 5.0. Each assay buffer contained 0.01% Triton X-100 to prevent false positive inhibition due to aggregation of compounds[45], 5 mM cysteine, 1.5 mM EDTA and 0.1% PEG 8000. Enzymes were activated at 37 °C for 5 min before the assays.
Ki was determined by measuring the initial rate of hydrolysis at three different substrate concentrations (Supplementary Table S2) in the presence of seven different compound concentrations (0, 20, 40, 60, 80, 100 and 200 μM). 90 μL of the activated cathepsin was added to a black 96-well plate with 5 μL of the substrate and 5 μL of the compound. Formation of the fluorescent degradation product was monitored continuously at 460 nm ± 10 nm with excitation at 380 nm ± 20 nm (for AMC substrates) and, as noted above for Abz substrates, at 37 °C. All measurements were performed twice and in duplicate. The resulting data were analyzed by non-linear regression using the software SigmaPlot®, Enzyme Kinetics Module™ 1.3 and were fitted to the equation v = v max [S]/([S] (1 + [I]/αK i ) + K m (1 + [I]/K i )) (first group of compounds). For Ki determination against cathepsin X for the compounds from the second group, progress curves in the absence and presence of each putative inhibitor were fitted to the reaction mechanism presented in Fig. 3b. In this case the resulting data as well as reactivation curves were fitted to the equation system presented in Fig. 3c using ENZO application. For calculation of kinetic parameters from reaction progress curves the fluorescence coefficient for conversion of arbitrary fluorescence units to concentration was first determined. The fluorescence coefficient was calculated as the slope from the plot of initial substrate concentration vs. height of the plateau of the progress curve after complete hydrolysis of increasing concentrations of substrate, using linear regression.
Supplementary Table S2. Substrates used for the various cathepsins and their concentrations […]
Enzyme Substrate Concentration (µM) Reference/Company cathepsin X Abz-FEK(Dnp)-OH 3.25, 6.5, 13 Puzer et al.3 cathepsin B - endopept. Z-RR-AMC 60, 180, 360 Bachem cathepsin B - exopept. Abz-GIVRAK(Dnp)-OH 1, 3, 6 Bachem cathepsin S Z-VVR-AMC 0.5, 1, 1.5 Biomol cathepsin L Z-FR-AMC 0.5, 1, 4 Bachem cathepsin H Z-R-AMC 20, 80, 160 Biomol […]

PC-12 cells [3] = assay: Neurite outgrowth assay; assay type: cell-based, rat; settings: 10 µM; 48 h; vs DMSO control
Description: as §1
PC-12 cells were seeded in 96-well plates (4 × 10^4/well) coated with poly-L-lysine. Next day, the cells were treated with compounds (10 µM) in serum-free medium, and neurite outgrowth was measured after 48 h using Neurite Outgrowth Staining Kit (Molecular Probes), in accordance with the manufacturer’s instructions. Fluorescence intensity was measured at 525 nm with excitation at 483 nm for cell viability indicator and at 567 nm with excitation at 554 nm for cell membrane indicator. Results, expressing increased neurite outgrowth, were normalized to cells treated with DMSO.

PC-12 cells [4] = assay: Cytotoxicity assay (MTS) in PC-12 cells; assay type: cell-based, rat; settings: up to 10 μM, 24 and 48 hours
Description: as §1
(§2) 6.5 × 10^4 PC-3 cells/ml were seeded in a 96-well plate. PC-12 cells were seeded on poly-L-lysine (Sigma) coated plates in serum-free medium at a concentration of 4 × 10^4/well. Cells were treated with various concentrations of compounds (1, 2.5, 5 and 10 μM) for 24 or 48 hours. Cytotoxicity was determined with MTS reagent (CellTiter 96 Aqueous One Solution Cell Proliferation Assay, Promega) and A492 measured after 1 hour.

PC-3 cells [5] = assay: Cytotoxicity assay (MTS) in PC-3 cells; assay type: cell-based, human; settings: up to 10 μM, 24 and 48 hours
Description: as §1, §2

In the case of `CC(C)n1cnnc1SCC(=O)c1ccc2c(c1)OCCO2` [Compound 22, 1-(2,3-Dihydrobenzo[b][1,4]dioxin-6-yl)-2-((4-isopropyl-4H-1,2,4-triazol-3-yl)thio)ethan-1-one], the inhibition at 10 µM (PC-3 cells [1]; Homo sapiens, PC-3, 10 μM, compound in upper and bottom compartments, vs DMSO) is reported as 15 to 30%, the “inhibition of PC-3 cell migration, alternative setting excluding adhesion” value (PC-3 cells [1]; compound only in upper compartment, added 3 hours after seeding) is reported as “inhibits migration” and the Ki [2] is reported as 306 ± 38.1 µM. For the same molecule, the “increase of neurite outgrowth” value (PC-12 cells [3]) was 85%, the “cytotoxicity to PC-12 cells” value (PC-12 cells [4]) was “not cytotoxic” and the “cytotoxicity to PC-3 cells” value (PC-3 cells [5]) was “not cytotoxic”.
